# In patent US8877748B2, “Heterocyclic fused anthraquinone derivatives, manufacturing method and pharmaceutical composition using thereof” (National Defense Medical Center, priority 2012, dated 2014):
# Assays:
# NCI-H460 = test: NCI one-dose screening, non-small cell lung cancer NCI-H460; assay type: cell-based, human; settings: 10 μM
# NCI-H522 = test: NCI one-dose screening, non-small cell lung cancer NCI-H522; assay type: cell-based, human; settings: 10 μM
# U251 = test: NCI one-dose screening, CNS cancer U251; assay type: cell-based, human; settings: 10 μM
# SF-268 = test: NCI one-dose screening, CNS cancer SF-268; assay type: cell-based, human; settings: 10 μM
# T-47D = test: NCI one-dose screening, breast cancer T-47D; assay type: cell-based, human; settings: 10 μM
# IGROV1 = test: NCI one-dose screening, ovarian cancer IGROV1; assay type: cell-based, human; settings: 10 μM
# HCC-2998 = test: NCI one-dose screening, colon cancer HCC-2998; assay type: cell-based, human; settings: 10 μM
# CCRF-CEM = test: NCI screening platform one-dose single concentration screening, leukemia CCRF-CEM; assay type: cell-based, human; settings: 10 μM
# HOP-62 = test: NCI one-dose screening, non-small cell lung cancer HOP-62; assay type: cell-based, human; settings: 10 μM
# SN12C = test: NCI one-dose screening, renal cancer SN12C; assay type: cell-based, human; settings: 10 μM
# ACHN = test: NCI one-dose screening, renal cancer ACHN; assay type: cell-based, human; settings: 10 μM
# MDA-MB-231/ATCC = test: NCI one-dose screening, breast cancer MDA-MB-231/ATCC; assay type: cell-based, human; settings: 10 μM
# M14 = test: NCI one-dose screening, melanoma M14; assay type: cell-based, human; settings: 10 μM
# HCT-15 = test: NCI one-dose screening, colon cancer HCT-15; assay type: cell-based, human; settings: 10 μM
# OVCAR-8 = test: NCI one-dose screening, ovarian cancer OVCAR-8; assay type: cell-based, human; settings: 10 μM
# MOLT-4 = test: NCI one-dose screening, leukemia MOLT-4; assay type: cell-based, human; settings: 10 μM
# PRMI-8226 cell line = test: NCI one-dose screening, leukemia PRMI-8226; assay type: cell-based, human; settings: 10 μM
# DU145 = test: NCI one-dose screening, prostate cancer DU145; assay type: cell-based, human; settings: 10 μM
# HS 578-T = test: NCI one-dose screening, breast cancer HS 578-T; assay type: cell-based, human; settings: 10 μM; Breast cancer
# 786-O = test: NCI one-dose screening, renal cancer 786-O; assay type: cell-based, human; settings: 10 μM
# [1] = test system: PC-3 prostate cancer cell line; test: SRB assay cell viability, PC-3 prostate cancer cell line; assay type: cell-based, human; settings: Homo sapiens, PC-3 prostate cancer cell line, Table II prints no unit, μM printed, read-out: SRB assay: 50% inhibition of cancer cell proliferation of sample concentration (IC50) of PC-3 prostate cancer cell line
# NCl/ADR-RES = test: NCI one-dose screening, breast cancer NCl/ADR-RES; assay type: cell-based, human; settings: 10 μM; listed under Ovarian cancer
# MALME-3M = test: NCI one-dose screening, melanoma MALME-3M; assay type: cell-based, human; settings: 10 μM
# RXF, 393 = test: NCI one-dose screening, renal cancer RXF, 393; assay type: cell-based, human; settings: 10 μM
# EKVX = test: NCI one-dose screening, non-small cell lung cancer EKVX; assay type: cell-based, human; settings: 10 μM
# UO-31 = test: NCI one-dose screening, renal cancer UO-31; assay type: cell-based, human; settings: 10 μM
# HL-60, TB = test: NCI one-dose screening, leukemia HL-60, TB; assay type: cell-based, human; settings: 10 μM
# NCI-H226 = test: NCI one-dose screening, non-small cell lung cancer NCI-H226; assay type: cell-based, human; settings: 10 μM
# SNB-19 = test: NCI one-dose screening, CNS cancer SNB-19; assay type: cell-based, human; settings: 10 μM
# human tumor cell lines = test: NCI one-dose screening, Mean / Delta / Range of growth percent over all tested cell lines; assay type: cell-based; settings: 10 μM
# UACC-62 = test: NCI one-dose screening, melanoma UACC-62; assay type: cell-based, human; settings: 10 μM
# LOX IMVI = test: NCI one-dose screening, melanoma LOX IMVI; assay type: cell-based, human; settings: 10 μM
# OVCAR-5 = test: NCI one-dose screening, ovarian cancer OVCAR-5; assay type: cell-based, human; settings: 10 μM
# SK-MEL-2 = test: NCI one-dose screening, melanoma SK-MEL-2; assay type: cell-based, human; settings: 10 μM
# OVCAR-3 = test: NCI one-dose screening, ovarian cancer OVCAR-3; assay type: cell-based, human; settings: 10 μM
# MDA-MB-468 = test: NCI one-dose screening, breast cancer MDA-MB-468; assay type: cell-based, human; settings: 10 μM
# MDA, -MB-435 = test: NCI one-dose screening, breast cancer MDA, -MB-435; assay type: cell-based, human; settings: 10 μM; listed under Melanoma
# SK-MEL-5 = test: NCI one-dose screening, melanoma SK-MEL-5; assay type: cell-based, human; settings: 10 μM
# SF-539 = test: NCI one-dose screening, CNS cancer SF-539; assay type: cell-based, human; settings: 10 μM
# SNB-75 = test: NCI one-dose screening, CNS cancer SNB-75; assay type: cell-based, human; settings: 10 μM
# OVCAR-4 = test: NCI one-dose screening, ovarian cancer OVCAR-4; assay type: cell-based, human; settings: 10 μM
# UACC-257 = test: NCI one-dose screening, melanoma UACC-257; assay type: cell-based, human; settings: 10 μM
# BT-549 = test: NCI one-dose screening, breast cancer BT-549; assay type: cell-based, human; settings: 10 μM
# MCF7 = test: NCI one-dose screening, breast cancer MCF7; assay type: cell-based, human; settings: 10 μM
# SK-MEL-28 = test: NCI one-dose screening, melanoma SK-MEL-28; assay type: cell-based, human; settings: 10 μM
# KM12 = test: NCI one-dose screening, colon cancer KM12; assay type: cell-based, human; settings: 10 μM
# SR = test: NCI one-dose screening, leukemia SR; assay type: cell-based, human; settings: 10 μM
# COLO 205 = test: NCI one-dose screening, colon cancer COLO 205; assay type: cell-based, human; settings: 10 μM
# NCI-H322M = test: NCI one-dose screening, non-small cell lung cancer NCI-H322M; assay type: cell-based, human; settings: 10 μM; Non-small cell lung cancer
# A549/ATCC = test: NCI one-dose screening, non-small cell lung cancer A549/ATCC; assay type: cell-based, human; settings: 10 μM
# TK-10 = test: NCI one-dose screening, renal cancer TK-10; assay type: cell-based, human; settings: 10 μM
# K562cell line = test: NCI one-dose screening, leukemia K562; assay type: cell-based, human; settings: 10 μM
# CAKI-1 = test: NCI one-dose screening, renal cancer CAKI-1; assay type: cell-based, human; settings: 10 μM
# SF-295 = test: NCI one-dose screening, CNS cancer SF-295; assay type: cell-based, human; settings: 10 μM
# HT29 = test: NCI one-dose screening, colon cancer HT29; assay type: cell-based, human; settings: 10 μM
# HCT-116 = test: NCI one-dose screening, colon cancer HCT-116; assay type: cell-based, human; settings: 10 μM
# PC-3 = test: NCI one-dose screening, prostate cancer PC-3; assay type: cell-based, human; settings: 10 μM
# NCI-H23 = test: NCI one-dose screening, non-small cell lung cancer NCI-H23; assay type: cell-based, human; settings: 10 μM
compound,measurement,setting,value
"O=C1c2ccccc2C(=O)c2c1cc(N1CCSCC1)c1nsnc21 [C15, 4-(thiomorpholino)anthra[2,1-c][1,2,5] thiadiazol-6,11-dione]",Growth Percent NCI-H460,NCI-H460,87.46%
same,Growth Percent NCI-H522,NCI-H522,38.70%
same,Growth Percent U251,U251,40.24%
same,Growth Percent SF-268,SF-268,95.90%
same,Growth Percent T-47D,T-47D,56.78%
same,Growth Percent IGROV1,IGROV1,75.28%
same,Growth Percent HCC-2998,HCC-2998,107.83%
same,Growth Percent CCRF-CEM,CCRF-CEM,43.60%
same,Growth Percent HOP-62,HOP-62,76.66%
same,Growth Percent SN12C,SN12C,76.76%
same,Growth Percent ACHN,ACHN,83.52%
same,Growth Percent MDA-MB-231/ATCC,MDA-MB-231/ATCC,45.69%
same,Growth Percent M14,M14,117.70%
same,Growth Percent HCT-15,HCT-15,61.93%
same,Growth Percent OVCAR-8,OVCAR-8,41.72%
same,Growth Percent MOLT-4,MOLT-4,42.86%
same,Growth Percent RPMI-8226,PRMI-8226 cell line,56.96%
same,Growth Percent DU145,DU145,79.83%
same,Growth Percent HS 578T,HS 578-T,84.36%
same,Growth Percent 786-0,786-O,120.26%
same,IC50,[1],> 15 µM
same,Growth Percent NCI/ADR-RES,NCl/ADR-RES,54.16%
same,Growth Percent MALME-3M,MALME-3M,48.56%
same,Growth Percent RXF 393,"RXF, 393",85.93%
same,Growth Percent EKVX,EKVX,86.63%
same,Growth Percent UO-31,UO-31,61.00%
same,Growth Percent HL-60(TB),"HL-60, TB",51.57%
same,Growth Percent NCI-H226,NCI-H226,78.10%
same,Growth Percent SNB-19,SNB-19,100.15%
same,Growth Percent Delta,human tumor cell lines; delta over all cell lines,70.03%
same,Growth Percent Mean,human tumor cell lines; mean over all cell lines,70.31%
same,Growth Percent Range,human tumor cell lines; range over all cell lines,119.98%
same,Growth Percent UACC-62,UACC-62,83.96%
same,Growth Percent LOX IMVI,LOX IMVI,30.16%
same,Growth Percent OVCAR-5,OVCAR-5,112.62%
same,Growth Percent SK-MEL-2,SK-MEL-2,43.98%
same,Growth Percent OVCAR-3,OVCAR-3,41.52%
same,Growth Percent MDA-MB-468,MDA-MB-468,12.59%
same,Growth Percent MDA-MB-435,"MDA, -MB-435",77.03%
same,Growth Percent SK-MEL-5,SK-MEL-5,22.81%
same,Growth Percent SF-539,SF-539,90.64%
same,Growth Percent SNB-75,SNB-75,105.73%
same,Growth Percent OVCAR-4,OVCAR-4,0.28%
same,Growth Percent UACC-257,UACC-257,35.78%
same,Growth Percent BT-549,BT-549,104.74%
same,Growth Percent MCF7,MCF7,49.73%
same,Growth Percent SK-MEL-28,SK-MEL-28,90.60%
same,Growth Percent KM12,KM12,83.12%
same,Growth Percent SR,SR,55.02%
same,Growth Percent COLO 205,COLO 205,107.31%
same,Growth Percent NCI-H322M,NCI-H322M,91.69%
same,Growth Percent A549/ATCC,A549/ATCC,62.74%
same,Growth Percent TK-10,TK-10,106.46%
same,Growth Percent K562,K562cell line,59.58%
same,Growth Percent CAKI-1,CAKI-1,76.06%
same,melting point,,219 to 220 °C
same,Growth Percent SF-295,SF-295,94.85%
same,Growth Percent HT29,HT29,86.91%
same,Growth Percent HCT-116,HCT-116,88.21%
same,Growth Percent PC-3,PC-3,56.99%
same,Growth Percent NCI-H23,NCI-H23,33.45%
